Measured values as given in patent US8912184B1, “Therapeutic and diagnostic methods” (Alzheimer's Institute of America, Inc., priority 2010, dated 2014).
Like-named read-outs stand apart in the source and are kept apart here.

System: HCT116 cells
Test: Nicotinic Acid Rescue Cytotoxicity Assay, first method: cytotoxicity to HCT116 cells in presence and absence of 10 μM nicotinic acid
Assay type: cell-based
Conditions: Homo sapiens, HCT-116, 72 h
Protocol: Additionally, Nicotinic Acid (NA) rescue of cytotoxicity of Nampt inhibitors was assessed by two distinct methods. In the first method, Nampt1 inhibitor cytotoxicity was evaluated in the presence and absence of exogenous nicotinic acid (NA) at a fixed concentration. […] Twenty four hours after cells were plated, the media was removed and replaced with media containing 10 μM nicotinic acid. Compounds were then immediately added. Cell viability was then assessed at 72 h.
Using the first of the two assays described above, the 90 compounds shown in Table 5, below, were tested for cytotoxicity towards Naprt1-proficient HCT116 cells, and for the ability of NA to block the observed cytotoxicity (or “rescue” the cells from the cytotoxic activity of the tested compound). The compounds listed are referred to by a unique rescue analysis example number (i.e., R1, R2 . . . R90) that is used as a reference number in Table 4, in which the results of the cytotoxicity and rescue assays are presented.

[1] = absence of nicotinic acid, read-out: HCT116 72 h cytotoxicity
[2] = presence of 10 μM nicotinic acid, read-out: HCT116 72 h cytotoxicity with 10 μM Nicotinic Acid

Row | Structure (SMILES) | IC50 [1] [nM] | IC50 [2] [nM]
1 | O=C(NCc1cccnc1)c1ccc(NC(=O)c2ccccc2)cc1 [Example R6, 4-[(Phenylcarbonyl)amino]-N-(pyridin-3-ylmethyl)benzamide] | 1690 | > 10000
2 | O=C(Nc1ccc(C(=O)NCc2cccnc2)cc1)Nc1ccc(Cl)c(Cl)c1 [Example R12, 4-{[(3,4-Dichlorophenyl)carbamoyl]amino}-N-(pyridin-3-ylmethyl)benzamide] | 9640 | 24800
3 | O=C(NCc1cccnc1)Nc1ccc(NS(=O)(=O)c2ccccc2Br)cc1 [Example R33, 2-Bromo-N-(4-{[(pyridin-3-ylmethyl)carbamoyl]amino}phenyl)benzene-sulfonamide] | 4.6 | > 50000
4 | O=C(CN1CCCc2ccccc21)Nc1ccc(C(=O)NCc2cccnc2)cc1 [Example R17, 4-[(3,4-Dihydroquinolin-1(2H)-ylacetyl)amino]-N-(pyridin-3-ylmethyl)benzamide] | 2050 | > 50000
5 | O=C(NCc1cccnc1)Nc1ccc(C2(Oc3ccccc3-c3ccccc3)CC2)cc1 [Example R87, 1-{4-[1-(Biphenyl-2-yloxy)cyclopropyl]phenyl}-3-(pyridin-3-ylmethyl)urea] | 1.1 | 3000
6 | CCn1cc(-c2ccccc2OCc2ccc(NC(=O)NCc3cccnc3)cc2)cn1 [Example R84, 1-(4-{[2-(1-Ethyl-1H-pyrazol-4-yl)phenoxy]methyl}phenyl)-3-(pyridin-3-ylmethyl)urea] | 10.8 | > 5000
7 | CCOc1ccccc1NCC(=O)Nc1ccc(C(=O)NCc2cccnc2)cc1 [Example R21, 4-{[N-(2-Ethoxyphenyl)glycyl]amino}-N-(pyridin-3-ylmethyl)benzamide] | 435 | > 50000
8 | O=C(NCc1cccnc1)Nc1ccc(NS(=O)(=O)c2cc(Cl)ccc2Cl)cc1 [Example R74, 2,5-dichloro-N-(4-{[(pyridin-3-ylmethyl)carbamoyl]amino}phenyl)benzene-sulfonamide] | 2.3 | > 5000
9 | O=C(NCc1cccnc1)Nc1ccc(NS(=O)(=O)c2sccc2Br)cc1 [Example R71, 3-bromo-N-(4-{[(pyridin-3-ylmethyl)carbamoyl]amino}phenyl) thiophene-2-sulfonamide] | 13.2 | > 5000
10 | O=C(NCc1cccnc1)Nc1ccc(NS(=O)(=O)c2cc(C(F)(F)F)ccc2C(F)(F)F)cc1 [Example R67] | 0.3 | > 1000
11 | O=C(NCc1cccnc1)Nc1ccc(NS(=O)(=O)c2ccc(Cl)cc2Cl)cc1 [Example R75, 2,4-dichloro-N-(4-{[(pyridin-3-ylmethyl)carbamoyl]amino}phenyl)benzene-sulfonamide] | 30.3 | > 5000
12 | CCn1cc(-c2ccccc2S(=O)(=O)Nc2ccc(NC(=O)NCc3cccnc3)cc2)cn1 [Example R89, 2-(1-Ethyl-1H-pyrazol-4-yl)-N-(4-{[(pyridin-3-ylmethyl)carbamoyl]amino}phenyl)benzene-sulfonamide] | 34.2 | > 5000
13 | O=C(NCCCCCOc1ccccc1-c1ccccc1)NCc1cccnc1 [Example R85, 1-[5-(Biphenyl-2-yloxy)pentyl]-3-(pyridin-3-ylmethyl)urea] | 1.3 | > 5000
14 | C#CCN(Cc1ccc2nc(C)n(C)c(=O)c2c1)c1ccc(C(=O)NCc2cccnc2)cc1 [Example R47, 4-{[(2,3-Dimethyl-4-oxo-3,4-dihydroquinazolin-6-yl)methyl](prop-2-yn-1-yl)amino}-N-(pyridin-3-ylmethyl)benzamide] | 33.5 | > 10000
15 | O=C(NCc1cccnc1)c1ccc(NC(=S)Nc2cccc(OCc3ccccc3)c2)cc1 [Example R15, 4-({[3-(Benzyloxy)phenyl]carbamothioyl}amino)-N-(pyridin-3-ylmethyl)benzamide] | 4690 | > 50000
16 | CC(=O)Nc1cccc(-c2ccccc2CNc2ccc(C(=O)NCc3cccnc3)cc2)c1 [Example R26, 4-({[3′-(Acetylamino)biphenyl-2-yl]methyl}amino)-N-(pyridin-3-ylmethyl)benzamide] | 26.9 | 25000
17 | O=C(NCc1cccnc1)Nc1ccc(NS(=O)(=O)c2ccccc2-c2ccn[nH]2)cc1 [Example R88, 2-(1H-Pyrazol-5-yl)-N-(4-{[(pyridin-3-ylmethyl)carbamoyl]amino}phenyl)benzene-sulfonamide] | 2.5 | > 5000
18 | O=C(CNCc1ccccc1Br)Nc1ccc(C(=O)NCc2cccnc2)cc1 [Example R18, 4-{[N-(2-Bromobenzyl)glycyl]amino}-N-(pyridin-3-ylmethyl)benzamide] | 6810 | > 50000

Row | Structure (SMILES) | IC50 [1] [nM] | IC50 [2] [nM]
19 | O=C(NCc1cccnc1)Nc1ccc(NS(=O)(=O)c2ccccc2-c2ccsc2)cc1 [Example R63, N-(4-{[(pyridin-3-ylmethyl)carbamoyl]amino}phenyl)-2-(thiophen-3-yl)benzenesulfonamide] | 1.6 | > 10000
20 | O=C(NCc1cccnc1)Nc1ccc(NS(=O)(=O)c2ccccc2)cc1 [Example R32, N-(4-{[(Pyridin-3-ylmethyl)carbamoyl]amino}phenyl)benzene-sulfonamide] | 194 | > 50000
21 | O=C(CN1CCc2ccccc21)Nc1ccc(C(=O)NCc2cccnc2)cc1 [Example R16, 4-[(2,3-Dihydro-1H-indol-1-ylacetyl)amino]-N-(pyridin-3-ylmethyl)benzamide] | 3290 | > 50000
22 | O=C(NCc1cccnc1)Nc1ccc(NS(=O)(=O)c2cc(C(F)(F)F)ccc2-c2ccccc2)cc1 [Example R60, N-(4-{[(pyridin-3-ylmethyl)carbamoyl]amino}phenyl)-4-(trifluoromethyl)biphenyl-2-sulfonamide] | 3.7 | > 5000
23 | N#C/N=C(\NCCCCCCOc1ccc(Cl)cc1)Nc1ccnc(Cl)c1 [Example R37, 1-[6-(4-Chlorophenoxy)hexyl]-2-(2-chloropyridin-4-yl)-3-cyanoguanidine] | 168 | 5000
24 | CN(C)c1cccc2c(S(=O)(=O)Nc3ccc(NC(=O)NCc4cccnc4)cc3)cccc12 [Example R45, 5-(Dimethylamino)-N-(4-{[(pyridin-3-ylmethyl)carbamoyl]amino}phenyl) naphthalene-1-sulfonamide] | 4.8 | > 10000
25 | O=C(NCc1cccnc1)Nc1ccc(NS(=O)(=O)c2ccccc2-c2ccccc2)nc1 [Example R90, N-(5-{[(Pyridin-3-ylmethyl)carbamoyl]amino}pyridin-2-yl)biphenyl-2-sulfonamide] | 28.7 | > 5000
26 | O=C(NCc1cccnc1)c1ccc(OCc2ccccc2-c2cnc3ccccc3c2)cc1 [Example R48, N-(Pyridin-3-ylmethyl)-4-{[2-(quinolin-3-yl)benzyl]oxy}benzamide] | 38.8 | > 10000
27 | CCOC(=O)c1c[nH]c2ccc(C(=O)Nc3ccc(C(=O)NCc4cccnc4)cc3)cc2c1=O [Example R53, ethyl 4-oxo-6-({4-[(pyridin-3-ylmethyl)carbamoyl]phenyl}carbamoyl)-1,4-dihydroquinoline-3-carboxylate] | 6.8 | > 10000
28 | O=C(NCc1cccnc1)Nc1ccc(NCc2ccccc2Cl)cc1 [Example R31, 1-{4-[(2-Chlorobenzyl)amino]phenyl}-3-(pyridin-3-ylmethyl)urea] | 1270 | > 50000
29 | O=C(NCc1cccnc1)Nc1ccc(NS(=O)(=O)c2cc(C(F)(F)F)ccc2Br)cc1 [Example R57, 2-Bromo-N-(4-{[(pyridin-3-ylmethyl)carbamoyl]amino}phenyl)-5-(trifluoromethyl)benzenesulfonamide] | 0.5 | > 10000
30 | Cc1cnccc1N/C(=N/C#N)NCCCCCCOc1ccc(Cl)cc1 [Example R38, 1-[6-(4-Chlorophenoxy)hexyl]-2-cyano-3-(3-methylpyridin-4-yl)guanidine] | 1.4 | > 10000
31 | O=C(NCc1cccnc1)c1ccc(NC(=S)Nc2ccccc2Br)cc1 [Example R13, 4-{[(2-Bromophenyl)carbamothioyl]amino}-N-(pyridin-3-ylmethyl)benzamide] | 1610 | > 50000
32 | O=C(NCc1cccnc1)c1ccc(OCc2ccccc2-c2ccccc2)cc1 [Example R23, 4-(Biphenyl-2-ylmethoxy)-N-(pyridin-3-ylmethyl)benzamide] | 539 | > 50000
33 | O=C(/C=C/c1cccnc1)NCCCCC1CCN(C(=O)c2ccccc2)CC1 [Example R3, (2E)-N-[4-(1-Benzoylpiperidin-4-yl)butyl]-3-(pyridin-3-yl)prop-2-enamide] | 1.4 | > 10000
34 | O=C(NCc1cccnc1)c1ccc(NCc2ccccc2-c2cccc(C(F)(F)F)c2)cc1 [Example R29, N-(Pyridin-3-ylmethyl)-4-({[3′-(trifluoromethyl)biphenyl-2-yl]methyl}amino)benzamide] | 10300 | 25000
35 | O=C(Nc1ccc(C(=O)NCc2cccnc2)cc1)Nc1cc(C(F)(F)F)cc(C(F)(F)F)c1 [Example R14, 4-({[3,5-Bis(trifluoromethyl)phenyl]carbamoyl}amino)-N-(pyridin-3-ylmethyl)benzamide] | 7390 | 21500
36 | C#CCN(Cc1cc2c(=O)n(C)c(CN3CCN(C)CC3)nc2cc1Cl)c1ccc(C(=O)NCc2ccccn2)cc1 [Example R4, 4-[({7-Chloro-3-methyl-2-[(4-methylpiperazin-1-yl)methyl]-4-oxo-3,4-dihydroquinazolin-6-yl}methyl)(prop-2-yn-1-yl)amino]-N-(pyridin-2-ylmethyl)benzamide] | 276 | > 10000
